Laboratory results from US7524849B2, “5-arylpyrimidines as anticancer agents” (Wyeth Holdings Corporation, priority 2003, dated 2009).
Like-named read-outs stand apart in the source and are kept apart here. Marks after values point to notes of the source that are not given here. Values belong to the compound of their own block, whether it stands above or below them.

Assays:
KB-V1 cells = experiment: MTS cytotoxicity test with KB-V1 cells (very high P-glycoprotein); type: cell-based, human; conditions: for IC50: KB VI cells, mean of 2 experiments; for Ratio VI/KB: IC50 on KB VI cells/IC50 on KB cells
Description: Human cancer cell lines, unless otherwise noted, are obtained from the American Type Culture Collection (Rockville, Md.). The following drug-sensitive parental cell lines, and their derived drug-resistant counterparts, are obtained from the originators as listed: (a) S1 (parental line from a subclone of human colon carcinoma line LS174T) and derived S1-M1-3.2 (herein called S1-M1) which expresses the MXR drug transporter protein, are provided by Dr. L. Greenberger, Wyeth Research (Rabindran, S. K., He, H., Singh, M., Brown, E., Collins, K. I., Annable, T., and Greenberger, L. M. Reversal of a novel multidrug resistance mechanism in human colon carcinoma cells by fumitremorgin C. Cancer Res., 58: 5850-5858, 1998); (b) parental HL-60 human promyelocytic leukemia line and derived HL-60/ADR, which expresses the MRP1 drug transporter protein, are provided by Dr. M. Center, University of Kansas (McGrath, T., and Center, M. S. Adriamycin resistance in HL60 cells in the absence of detectable P-glycoprotein. Biochem. Biophys. […] J. Biol. Chem., 261: 7762-7770, 1986) via Dr. L. Greenberger, Wyeth Research.
The assay, which is sold in kit form by Promega (Madison, Wis.; CellTiter 96 AQueous Non-Radioactive Cell Proliferation Assay), is based on the conversion by viable cells, but not by dead cells, of the tetrazolium salt, MTS (3-(4,5-dimethylthiazol-2-yl)-5-(3-carboxymethoxyphenyl)-2-(4-sulphophenyl)-2H-tetrazolium, inner salt), into a water-soluble colored formazan which is detected by spectrophotometry. Compounds are tested at nine concentrations, in order to determine IC50 values. For the test procedure, cells are harvested by trypsinization, washed, counted and distributed to wells of 96-well flat-bottom microtiter plates at 1000 cells per well in 200 μL of medium. In addition, one row of wells on a separate plate receives cells as above (“time 0” plate). All plates are incubated at 37° in humidified 5% CO2 in air for about 24 hr.
On day 2, compounds for test are diluted and added to wells. Compounds are dissolved in DMSO at 10 mg/mL. For each compound, nine serial 2-fold dilutions are prepared in DMSO. Ten μL of each dilution in DMSO are transferred to 100 μL of medium, mixed well, and then 5 μL of this dilution are transferred in quadruplicate to wells containing cells. […] Plates are returned to the incubator for three days. At the time of drug addition to the experimental plates, the MTS assay is run on the “time 0” plate. This produces the “time 0 MTS value” which is related to the number of viable cells per well at the time of drug addition.
After three days of culture with test compounds (day 5 overall), the MTS assay is done on all wells of the experimental plates. The absorbance values of the quadruplicate sample wells are averaged and divided by the average of the “time 0” values. […] The nine values for each compound are plotted against concentration, and the concentration that produces a relative color yield half way between the maximum and minimum is taken as the IC50 value.

MAP-rich tubulin = experiment: Tubulin polymerization test with MAP-rich tubulin; type: biochemical, bovine; conditions: 0.3 μM compound, mean A340 at 20 min, fold enhancement over control
Method: (§1) Medium is RPMI-1640 with L-glutamine, supplemented with 10% heat-inactivated fetal calf serum, 100 units/mL penicillin, and 100 μg/mL streptomycin (Gibco, Grand Island, N.Y.). Microtubule-associated protein (MAP)-rich tubulin, containing about 70% tubulin and 30% MAPs (#ML113), and highly purified tubulin (>99% pure, #TL238), both from bovine brain, are obtained from Cytoskeleton, Inc., Denver, Colo. PEM buffer (80 mM piperazine-N,N′-bis[2-ethanesulfonic acid], pH 6.9, 1 mM ethylene glycol-bis(β-aminoethyl ether)-N,N,N′,N′-tetraacetic acid, 1 mM magnesium chloride) and guanosine 5′-triphosphate (GTP) are also obtained from Cytoskeleton. […] [^3H]vinblastine, specific activity 9.60 Ci/mmol and MicroSpin G-50 columns are obtained from Amersham Biosciences (Piscataway, N.J.). […] Other reagents are obtained from Sigma (St. Louis, Mo.).
MAP-rich tubulin is dissolved in ice-cold PEM buffer containing 1 mM GTP (GPEM buffer) at a concentration of 1.3 mg/mL. The solution is centrifuged at top speed in an Eppendorf model 5415C microcentrifuge (Brinkmann Instruments, Westbury, N.Y.) for 10 min at 4° immediately before use. The tubulin solution is added to wells of a ½-area 96-well plate (Costar No. 3696, Corning, Inc., Corning, N.Y.) already containing the compounds of interest. Each compound is tested in duplicate at a final concentration of 0.3 μM in a volume of 110 μL per well. The final DMSO concentration in all wells is 0.3%. Control reactions, which receive compound solvent only, are done in quadruplicate. The plate is put in a SpectraMax Plus plate reader (Molecular Devices Corp. Sunnyvale, Calif.) thermostated at 24° and the absorbance of each well at 340 nm, a measure of the appearance of turbidity due to tubulin polymer formation, is determined every minute for 60 minutes. The absorbance at time 0 for each well is subtracted from each of the subsequent absorbance readings for that well, and then the duplicates are averaged.

[1] = test system: highly purified tubulin (tubulin heterodimer); experiment: Competitive binding test, [3H]vinblastine; parameters: species or system bovine; conditions: competitor 100 μM, [3H]vinblastine 100 nM, percent of binding to control without competitor
Method: as §1
The binding of examples of this invention to highly purified tubulin is studied by competitive inhibition methods.
These solutions are incubated at 24° for 1 hr and then applied to MicroSpin G-50 columns which are centrifuged for 2 min at 3000 rpm in an Eppendorf 5415C microfuge. An aliquot of each column effluent (containing tubulin and bound radioligand) is mixed with scintillation fluid and counted in a liquid scintillation spectrometer. […] Quadruplicates are averaged, and the ability of the competitor to inhibit the binding of the radioligand is expressed as a percentage of control binding in the absence of any competitor.

[2] = test system: DLD1 Human Colon Carcinoma; experiment: Human tumor xenograft test, DLD1 colon carcinoma; type: in vivo, athymic mice; conditions: for T/C on day 0 / T/C on day 7 / T/C on day 14: schedule days 1, 7, DLD1
[3] = test system: H157 Human Non-Small Cell Lung Carcinoma; conditions: for growth of xenografts: H157 NSCLC;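 as to all read-outs here: subcutaneous flank tumors in female athymic nu/nu mice, staged near 100 mm^3 on day 0, tumor volume from caliper measurements, vehicle-dosed controls on the same schedule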
Method: The ability of compounds of this invention to inhibit tumor growth in animals is studied in the athymic mouse xenograft standard pharmacological test. Female nu/nu mice in an outbred albino background are obtained from Charles River Laboratories (Wilmington, Mass.). Animals are injected subcutaneously on the flank with the desired tumor cell suspension. Several days later, mice with tumors of approximately 100 mm^3 are selected from those injected (staged) and randomly distributed into groups of 5-10. The day of staging is called day 0. Compounds of the invention, formulated in saline, are administered to animals by intravenous injection or oral gavage on various schedules starting on day 0 or 1, as noted in the tables. The control group in each experiment is dosed with vehicle on the same schedule. Tumor size is measured every 3-7 days with calipers in two orthogonal dimensions, and tumor volume is calculated from the formula volume=[(length×width^2)/2].
Tumor/Control (T/C) is obtained by dividing the mean tumor volume of the treated group by the mean tumor volume of the control group on each measurement day. […] A p value≦0.05, determined by one-side Student's t-test, is required for statistical significance. A treatment dose is defined as toxic if more than 30% of the animals die from a compound-related toxicity.

[4] = 1 mg/kg PO, schedule days 1, 7, H157
[5] = 5 mg/kg PO, schedule days 1, 7, H157
[6] = 1.5 mg/kg IV, schedule days 0, 7, H157
[7] = 3 mg/kg IV, schedule days 0, 7, H157
[8] = 5 mg/kg IV, schedule day 0, H157 (Table 11)
[9] = 5 mg/kg PO, schedule day 0, H157

Compound: CC[C@]1(O)C[C@H]2CN(CCc3c([nH]c4ccccc34)[C@@](C(=O)OC)(c3cc4c(cc3OC)N(C=O)[C@H]3[C@@](O)(C(=O)OC)[C@H](OC(C)=O)[C@]5(CC)C=CCN6CC[C@]43[C@@H]65)C2)C1 [Vincristine, reference compound]
- IC50 (KB-V1 cells; Homo sapiens, KB-V1): 2040 nM
- Ratio VI/KB (KB-V1 cells): 925
- A340 Compound / A340 Control (MAP-rich tubulin): 0.2
- [3H]Vinblastine binding, Mean [1]: 5 % of control
- [3H]Vinblastine binding, Mean ([1]; listed as vincristine): inhibits [^3H]vinblastine binding

Compound: CNCCCOc1cc(F)c(-c2c(Cl)nc(-c3cnccn3)nc2N[C@@H](C)C(F)(F)F)c(F)c1.Cl [Example 24a, 6-Chloro-5-{2,6-difluoro-4-[3-(methylamino)propoxy]phenyl}-2-pyrazin-2-yl-N-[(1S)-2,2,2-trifluoro-1-methylethyl]pyrimidin-4-amine hygrogen chloride]
- Ratio VI/KB (KB-V1 cells): 58
- IC50 (KB-V1 cells): 405 nM
- A340 Compound / A340 Control (MAP-rich tubulin): 2.3
- T/C on day 0 ([2]; 5 mg/kg IV): 1.0
- T/C on day 7 ([2]; 5 mg/kg IV): 0.24**
- T/C on day 14 ([2]; 5 mg/kg IV): Toxic
- T/C on day 0 ([2]; 5 mg/kg PO): 1.0
- T/C on day 7 ([2]; 5 mg/kg PO): 1.07
- T/C on day 14 ([2]; 5 mg/kg PO): 0.85
- T/C on day 0 ([2]; 10 mg/kg IV): 1.0
- T/C on day 7 ([2]; 10 mg/kg IV): Toxic
- T/C on day 0 ([2]; 10 mg/kg PO): 1.0
- T/C on day 7 ([2]; 10 mg/kg PO): 0.82
- T/C on day 14 ([2]; 10 mg/kg PO): 0.28**
- growth of tumor ([2]; DLD1 colon carcinoma, orally on days 1 and 7 at 10 mg/kg/dose): inhibits the growth
- T/C on day 0 [3, 4]: 0.96
- T/C on day 4 [3, 4]: 0.73*
- T/C on day 7 [3, 4]: 0.70
- T/C on day 10 [3, 4]: 0.58
- T/C on day 13 [3, 4]: 0.50*
- T/C on day 0 [3, 5]: 0.98
- T/C on day 4 [3, 5]: 0.64**
- T/C on day 7 [3, 5]: 0.51**
- T/C on day 10 [3, 5]: 0.16**
- T/C on day 13 [3, 5]: 0.12**
- growth of xenografts ([3]; orally on days 1 and 7 with 5 or 1 mg/kg/dose): inhibits the growth

Compound: CNCCCOc1cc(F)c(-c2c(Cl)nc(-n3cccn3)nc2N[C@@H](C)C(F)(F)F)c(F)c1.Cl [Example 32a, 6-Chloro-5-{2,6-difluoro-4-[3-(methylamino)propoxy]phenyl}-2-(1H-pyrazol-1-yl)-N-[(1S)-2,2,2-trifluoro-1-methylethyl)pyrimidin-4-amine Hydrogen Chloride]
- IC50 (KB-V1 cells; Homo sapiens, KB-V1): 569 nM
- Ratio VI/KB (KB-V1 cells): 242
- A340 Compound / A340 Control (MAP-rich tubulin): 2.3
- T/C on day 0 [3, 6]: 0.95
- T/C on day 4 [3, 6]: 0.89
- T/C on day 7 [3, 6]: 0.63*
- T/C on day 13 [3, 6]: 0.48*
- T/C on day 0 [3, 7]: 0.95
- T/C on day 4 [3, 7]: 0.72
- T/C on day 7 [3, 7]: 0.46**
- T/C on day 13 [3, 7]: 0.10**
- growth of xenografts ([3]; intravenously on days 0 and 7 at 3 or 1.5 mg/kg/dose): inhibits the growth

Compound: CNCCCOc1cc(F)c(-c2c(Cl)nc(-c3ccccn3)nc2N[C@@H](C)C(F)(F)F)c(F)c1.Cl [Example 29a, 6-Chloro-5-{2,6-difluoro-4-[3-(methylamino)propoxy]phenyl}-2-pyridin-2-yl-N-[(S)-2,2,2-trifluoro-1-methylethyl]pyrimidin-4-amine hydrogen chloride]
- IC50 (KB-V1 cells; Homo sapiens, KB-V1): 423 nM
- Ratio VI/KB (KB-V1 cells): 69
- A340 Compound / A340 Control (MAP-rich tubulin): 2.4
- T/C on day 0 ([2]; 1 mg/kg IV): 1.0
- T/C on day 7 ([2]; 1 mg/kg IV): 0.63*
- T/C on day 14 ([2]; 1 mg/kg IV): 0.71*
- T/C on day 0 ([2]; 1 mg/kg PO): 1.0
- T/C on day 7 ([2]; 1 mg/kg PO): 1.40
- T/C on day 14 ([2]; 1 mg/kg PO): 1.02
- T/C on day 0 ([2]; 5 mg/kg IV): 1.0
- T/C on day 7 ([2]; 5 mg/kg IV): 0.22**
- T/C on day 14 ([2]; 5 mg/kg IV): Toxic
- T/C on day 0 ([2]; 5 mg/kg PO): 1.0
- T/C on day 7 ([2]; 5 mg/kg PO): 0.79
- T/C on day 14 ([2]; 5 mg/kg PO): 0.59*
- T/C on day 0 [3, 8]: 1.03
- T/C on day 2 [3, 8]: 0.34**
- T/C on day 7 [3, 8]: Toxic
- T/C on day 0 [3, 9]: 1.02
- T/C on day 2 [3, 9]: 0.43**
- T/C on day 7 [3, 9]: 0.37**
- T/C on day 9 [3, 9]: 0.33**
- T/C on day 14 [3, 9]: 0.25**
- growth of xenografts ([3]; orally on day 0 with 5 mg/kg): inhibits the growth

- [3H]Vinblastine binding, Mean [1]: 92 % of control
Compound: CC(=O)O[C@H]1C(=O)[C@@]2(C)[C@H]([C@H](OC(=O)c3ccccc3)[C@]3(O)C[C@H](OC(=O)[C@H](O)[C@@H](NC(=O)c4ccccc4)c4ccccc4)C(C)=C1C3(C)C)[C@]1(OC(C)=O)CO[C@@H]1C[C@@H]2O [Paclitaxel, reference compound]
- IC50 (KB-V1 cells; Homo sapiens, KB-V1): 2010 nM
- A340 Compound / A340 Control (MAP-rich tubulin): 2.4
